Experimental data reported in the Kinase Knowledgebase extract (Sharma et al. 2016).

Legend:
PIK3CA (human) = PIK3CA (human) (UniProt P42336); assay: Assessment of PIK3CA Kinase Activity
PIK3CD (Human) = PIK3CD (Human) (UniProt O00329); assay: Assessment of PIK3CD Kinase Activity
PIK3CG (human) = PIK3CG (human) (UniProt P48736); assay: Assessment of PIK3CG Kinase Activity
PIK3CB (Human) = PIK3CB (Human) (UniProt P42338); assay: Assessment of PIK3CB Kinase Activity
PIK3CB (Human), sequence (P42338 whole entry, looked up): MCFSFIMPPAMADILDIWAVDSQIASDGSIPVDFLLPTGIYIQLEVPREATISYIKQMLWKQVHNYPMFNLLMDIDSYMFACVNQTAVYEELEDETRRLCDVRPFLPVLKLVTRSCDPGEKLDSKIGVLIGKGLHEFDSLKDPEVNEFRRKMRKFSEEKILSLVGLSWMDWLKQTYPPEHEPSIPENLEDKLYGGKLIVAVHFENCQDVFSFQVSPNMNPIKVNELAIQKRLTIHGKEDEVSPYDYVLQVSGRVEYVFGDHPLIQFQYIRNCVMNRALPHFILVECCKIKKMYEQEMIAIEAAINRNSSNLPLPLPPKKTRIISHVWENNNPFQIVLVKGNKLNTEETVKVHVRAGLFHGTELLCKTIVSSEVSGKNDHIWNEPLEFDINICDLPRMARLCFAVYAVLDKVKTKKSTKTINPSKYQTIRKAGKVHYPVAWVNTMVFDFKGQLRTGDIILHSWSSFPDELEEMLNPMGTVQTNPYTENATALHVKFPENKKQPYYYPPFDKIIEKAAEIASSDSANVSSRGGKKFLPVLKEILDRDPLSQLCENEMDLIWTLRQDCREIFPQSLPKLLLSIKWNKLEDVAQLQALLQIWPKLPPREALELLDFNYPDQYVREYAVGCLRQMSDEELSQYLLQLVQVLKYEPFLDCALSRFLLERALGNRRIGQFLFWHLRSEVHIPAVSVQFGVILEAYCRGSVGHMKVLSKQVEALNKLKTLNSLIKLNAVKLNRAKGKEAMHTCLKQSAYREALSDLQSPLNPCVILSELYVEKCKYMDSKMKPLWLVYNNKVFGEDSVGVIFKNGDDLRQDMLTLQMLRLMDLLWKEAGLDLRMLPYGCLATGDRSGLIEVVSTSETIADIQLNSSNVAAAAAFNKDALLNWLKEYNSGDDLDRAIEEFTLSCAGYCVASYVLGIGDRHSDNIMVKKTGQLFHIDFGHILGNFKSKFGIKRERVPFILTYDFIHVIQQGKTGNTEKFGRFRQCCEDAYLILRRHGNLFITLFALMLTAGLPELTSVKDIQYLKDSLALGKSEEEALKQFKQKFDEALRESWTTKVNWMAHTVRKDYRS

PIK3CD (Human), sequence (O00329 whole entry, looked up): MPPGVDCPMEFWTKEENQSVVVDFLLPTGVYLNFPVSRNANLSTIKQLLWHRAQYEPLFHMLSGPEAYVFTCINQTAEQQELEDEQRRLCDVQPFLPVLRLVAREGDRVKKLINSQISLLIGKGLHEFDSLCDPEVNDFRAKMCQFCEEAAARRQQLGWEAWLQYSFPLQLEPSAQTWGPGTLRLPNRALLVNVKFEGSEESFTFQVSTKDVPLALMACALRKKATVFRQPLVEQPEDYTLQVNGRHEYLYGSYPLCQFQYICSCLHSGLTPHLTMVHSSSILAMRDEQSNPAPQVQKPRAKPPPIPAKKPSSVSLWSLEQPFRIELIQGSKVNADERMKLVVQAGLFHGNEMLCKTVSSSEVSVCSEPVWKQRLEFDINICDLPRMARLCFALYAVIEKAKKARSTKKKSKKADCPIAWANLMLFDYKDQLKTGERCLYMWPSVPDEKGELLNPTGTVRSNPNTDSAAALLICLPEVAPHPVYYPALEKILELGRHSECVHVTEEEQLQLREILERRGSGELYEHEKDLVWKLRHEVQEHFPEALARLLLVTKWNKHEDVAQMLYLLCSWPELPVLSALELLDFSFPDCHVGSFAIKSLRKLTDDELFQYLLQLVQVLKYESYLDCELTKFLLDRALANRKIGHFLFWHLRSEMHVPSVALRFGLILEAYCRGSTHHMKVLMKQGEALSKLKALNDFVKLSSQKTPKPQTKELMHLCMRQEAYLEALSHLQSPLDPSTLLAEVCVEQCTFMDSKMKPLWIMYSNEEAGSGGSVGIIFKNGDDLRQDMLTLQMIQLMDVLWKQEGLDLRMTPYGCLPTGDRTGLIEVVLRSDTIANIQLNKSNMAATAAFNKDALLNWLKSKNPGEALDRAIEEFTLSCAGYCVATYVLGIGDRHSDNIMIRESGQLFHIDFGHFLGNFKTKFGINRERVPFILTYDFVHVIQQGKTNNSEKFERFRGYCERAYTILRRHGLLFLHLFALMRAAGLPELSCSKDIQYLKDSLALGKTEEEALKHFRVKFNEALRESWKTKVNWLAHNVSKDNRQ
PIK3CA (human), sequence (P42336 whole entry, looked up): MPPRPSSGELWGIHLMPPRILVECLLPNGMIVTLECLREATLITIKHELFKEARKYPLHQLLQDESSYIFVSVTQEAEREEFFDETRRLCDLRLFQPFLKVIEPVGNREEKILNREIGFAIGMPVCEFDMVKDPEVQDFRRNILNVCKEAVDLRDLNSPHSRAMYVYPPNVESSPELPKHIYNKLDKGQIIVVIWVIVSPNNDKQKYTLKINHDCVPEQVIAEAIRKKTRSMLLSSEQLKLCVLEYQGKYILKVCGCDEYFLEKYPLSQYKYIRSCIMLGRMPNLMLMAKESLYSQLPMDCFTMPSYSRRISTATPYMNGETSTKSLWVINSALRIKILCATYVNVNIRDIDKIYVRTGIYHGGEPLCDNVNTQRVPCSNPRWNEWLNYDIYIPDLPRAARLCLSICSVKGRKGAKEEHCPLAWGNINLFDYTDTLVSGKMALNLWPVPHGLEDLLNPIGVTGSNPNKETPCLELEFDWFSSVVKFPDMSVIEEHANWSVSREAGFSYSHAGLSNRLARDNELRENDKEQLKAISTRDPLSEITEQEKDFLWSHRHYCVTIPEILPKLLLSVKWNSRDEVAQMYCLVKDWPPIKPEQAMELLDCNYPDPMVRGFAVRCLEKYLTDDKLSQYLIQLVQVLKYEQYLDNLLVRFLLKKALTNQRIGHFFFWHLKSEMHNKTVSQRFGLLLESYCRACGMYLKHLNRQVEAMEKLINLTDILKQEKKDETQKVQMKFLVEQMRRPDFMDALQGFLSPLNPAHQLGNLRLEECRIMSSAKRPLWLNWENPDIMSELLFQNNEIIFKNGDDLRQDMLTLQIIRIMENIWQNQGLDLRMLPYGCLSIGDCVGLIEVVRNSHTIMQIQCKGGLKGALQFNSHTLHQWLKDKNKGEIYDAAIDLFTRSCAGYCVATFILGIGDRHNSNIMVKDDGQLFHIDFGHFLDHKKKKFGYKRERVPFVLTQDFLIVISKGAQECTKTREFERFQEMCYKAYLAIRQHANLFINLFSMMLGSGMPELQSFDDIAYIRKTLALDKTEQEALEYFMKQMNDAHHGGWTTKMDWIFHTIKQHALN
PIK3CG (human), sequence (P48736 whole entry, looked up): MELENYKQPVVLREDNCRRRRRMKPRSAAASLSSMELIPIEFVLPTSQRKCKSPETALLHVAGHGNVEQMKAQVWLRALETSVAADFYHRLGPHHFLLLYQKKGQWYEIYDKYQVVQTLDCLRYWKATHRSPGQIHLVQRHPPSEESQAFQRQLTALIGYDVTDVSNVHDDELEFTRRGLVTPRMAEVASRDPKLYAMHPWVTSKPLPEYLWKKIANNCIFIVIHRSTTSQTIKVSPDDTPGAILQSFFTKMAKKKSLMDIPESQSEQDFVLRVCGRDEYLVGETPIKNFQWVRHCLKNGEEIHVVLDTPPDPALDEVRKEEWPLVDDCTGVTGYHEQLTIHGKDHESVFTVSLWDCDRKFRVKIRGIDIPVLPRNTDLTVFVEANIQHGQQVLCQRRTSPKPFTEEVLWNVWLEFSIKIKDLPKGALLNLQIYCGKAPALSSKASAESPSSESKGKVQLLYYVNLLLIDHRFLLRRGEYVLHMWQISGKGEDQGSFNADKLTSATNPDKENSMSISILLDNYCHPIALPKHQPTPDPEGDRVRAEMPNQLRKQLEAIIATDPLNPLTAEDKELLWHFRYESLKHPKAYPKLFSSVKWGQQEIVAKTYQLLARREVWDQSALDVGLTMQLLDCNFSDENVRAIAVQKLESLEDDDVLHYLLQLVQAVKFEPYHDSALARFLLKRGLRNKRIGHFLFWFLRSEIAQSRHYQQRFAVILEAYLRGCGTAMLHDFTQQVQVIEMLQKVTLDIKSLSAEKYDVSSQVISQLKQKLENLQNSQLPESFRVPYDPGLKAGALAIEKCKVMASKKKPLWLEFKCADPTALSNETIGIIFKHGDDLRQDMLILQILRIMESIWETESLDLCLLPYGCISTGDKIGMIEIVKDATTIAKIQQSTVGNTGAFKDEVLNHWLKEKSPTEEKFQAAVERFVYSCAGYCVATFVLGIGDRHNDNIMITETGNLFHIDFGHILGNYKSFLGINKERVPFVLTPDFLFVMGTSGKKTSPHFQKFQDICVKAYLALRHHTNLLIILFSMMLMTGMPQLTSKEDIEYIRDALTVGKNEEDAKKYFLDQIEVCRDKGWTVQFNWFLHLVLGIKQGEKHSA

Compound	IC50 (PIK3CA (human)) [µM]	IC50 (PIK3CD (Human)) [µM]	IC50 (PIK3CG (human)) [µM]	IC50 (PIK3CB (Human)) [µM]
COC(=O)N1Cc2nc(-c3ccc(NC(=O)NCCF)cc3F)nc(N3CCOCC3)c2C1	> 10	> 10	> 10	> 10
C[C@H]1COCCN1c1nc(-c2ccc(NC(=O)NCCCO)cc2)nc2c1CN(C)C2	–	> 10	–	–
C[C@H]1COCCN1c1nc(-c2ccc(NC(=O)NCCN(C)C)cc2)nc2c1CN(C)C2	0.1 to 1	0.1 to 1	–	0.1 to 1

Second part, the molecule after the results:

IC50 (PIK3CA (human)) [µM]	IC50 (PIK3CD (Human)) [µM]	IC50 (PIK3CG (human)) [µM]	IC50 (PIK3CB (Human)) [µM]	Compound
–	> 10	–	–	C[C@H]1COCCN1c1nc(-c2ccc(NC(=O)NC3CCC3)cc2)nc2c1CN(C)C2
–	> 10	–	–	COCCCNC(=O)Nc1ccc(-c2nc3c(c(N4CCOC[C@@H]4C)n2)CN(C)C3)cc1
